The record followed here is US11168319B1, “Plant cell culture” (Inari Agriculture Technology, Inc., priority 2017, dated 2021).

Read-outs that look alike come from different tables or passages of the source.

This experiment deals with maize B73 protoplasts. Conditions: for Viability (%): 100 mM Ca; for protoplast viability: 288 hours, YPIM B- medium. The procedure: Separate suspensions of maize B73 and A188 protoplasts (2×10^5 cells per milliliter) were prepared in YPIM B-liquid medium containing various combinations of the added salts calcium chloride, potassium ascorbate, and magnesium chloride or magnesium sulfate. One-half milliliter aliquots of the suspensions were dispensed into a 24-well microtiter plate in the arrangement shown in Table 2, which lists the concentrations of calcium chloride (“Ca”), potassium ascorbate (“A”), and magnesium chloride (“MgCl2”) or magnesium sulfate (“MgSO4”) in millimolar values.
Viability was judged by Evans blue staining and visualization under a light microscope.
Separate suspensions of maize B73, winter wheat, soy, and strawberry protoplasts (2×10^5 cells per milliliter) were prepared in YPIM B-liquid medium containing calcium chloride at 0, 50, or 100 millimolar. One-half milliliter aliquots of the suspensions were dispensed into a 24-well microtiter plate.
Viability at day 8 of culture was judged by visualization under a light microscope.
Viability at day 13 was judged by Evans blue staining and visualization under a light microscope.
Separate suspensions of maize B73 protoplasts (2×10^5 cells per milliliter) were prepared in PIM B-liquid medium (identical to YPIM B-medium except with the 6-benzylaminopurine substituted with 0.022 milligrams/L thidiazuron) containing calcium chloride added at 0, 5, 20, 40, 70, or 100 millimolar. One-half milliliter aliquots of the suspensions were dispensed into a 24-well microtiter plate.
Viability was judged by visualization under a light microscope at day 7 and at day 14 of culture.
Separate suspensions of maize B73 and A188 protoplasts (2×10^5 cells per milliliter) were prepared in PIM B-liquid medium (identical to YPIM B-medium except with the 6-benzylaminopurine substituted with 0.022 milligrams/L thidiazuron) containing calcium chloride added at 0 or 50 millimolar. One-half milliliter aliquots of the suspensions were dispensed into a 24-well microtiter plate.
Viability was judged by visualization under a light microscope.
Separate suspensions of maize B73 and A188 protoplasts (2×10^5 cells per milliliter) were prepared in YPIM B-liquid medium containing (a) calcium chloride added at 100 millimolar, or (b) 1 millimolar glutathione, or (c) no added calcium or glutathione. One-milliliter aliquots of the suspensions were dispensed into a 24-well microtiter plate. At 16, 40, 64, and 136 hours of culture, 50-microliter samples were taken for hemocytometer analysis from each well; for the plates containing maize A188 protoplasts, parallel 50-microliter samples were taken from a replicate well at 16, 40, and 64 hours of culture for quantification using a Cellometer cell counter (Nexcelom Bioscience LLC, Lawrence, Mass.).
Viability was determined by Evans blue staining and quantification using a hemocytometer. Under conditions with high concentrations of calcium, Evans blue can create precipitates that interfere with cell counting; to prevent this, 5 microliters of an EDTA solution was added to the samples from the wells containing 100 millimolar calcium chloride immediately prior to staining.

Where [1] appears, read: day 13, 50 millimolar calcium, Evans blue.

As usually defined, the viability is the share of living cells, or the viability signal relative to a control. `[Ca+2].[Cl-].[Cl-]` [calcium chloride]: the “Viability (%)” value by setting is: (0 hours, hemocytometer) 90%; (16 hours) 65%; (40 hours) 57%; (64 hours) 58%; (136 hours) 30%. Further, the protoplast viability result was “almost all dead” (50 mM added salt) and 10-20% (100 mM added salt). Moreover, the “viability and cell division” value by setting is: (PIM B- medium, 100 millimolar calcium) “strongest enhanced viability and cell division”; (day 7, PIM B- medium, 40, 70, or 100 millimolar calcium) “formed clusters of viable, healthy cells with cell division occurring”. Moreover, the viability result was “still contained viable cells” (day 6, PIM B- medium, 50 millimolar calcium); “dead” (day 7, PIM B- medium, less than 40 millimolar calcium); 30% (day 8, 50 millimolar calcium, YPIM B-, light microscope); 80% (day 8, 100 millimolar calcium, YPIM B-, light microscope); 0% under setting [1]; 10% (day 13, 100 millimolar calcium, Evans blue). Also, the “viability of the maize protoplasts (second statement in the sentence)” value under setting [1] stood at 50%.
